# According to ChEMBL document CHEMBL5126678, “A New Naphthopyran Derivative Combines c-Myb Inhibition, Microtubule-Targeting Effects, and Antiangiogenic Properties” (ACS Med Chem Lett, 2022):
# Calls of active or inactive are those of the source. The rule behind the calls is not given here.
# Experiments:
# [1] = target: Transcriptional activator Myb (Homo sapiens, UniProt P10242); assay: Inhibition of c-Myb (unknown origin) expressed in HEK293T cells measured after 16 hrs by steady-glo luciferase reporter gene assay; format: cell-based
# [2] = Effect on angiogenic activity in 24 hrs post-fertilized fil1/EGFP transgenic zebrafish embryo assessed as subintestinal vessel area at 100 nM measured after 48 hrs by fluorescence microscopy (reference value: 100%); format: toxicity, Danio rerio; settings: 0.1 µM
# [3] = Cytotoxicity against human EA.hy 926 cells assessed as reduction in cell viability measured after 72 hrs by MTT assay; format: toxicity, cell-based
# 518A2 [4] = assay: Cytotoxicity against human 518A2 cells assessed as reduction in cell viability measured after 72 hrs by MTT assay; format: functional, cell-based; settings: 518A2, 72 h
# HCT-116 [5] = assay: Cytotoxicity against human HCT-116 cells assessed as reduction in cell viability measured after 72 hrs by MTT assay; format: functional, cell-based; settings: HCT-116, 72 h
# HCT-116 [6] = assay: Cytotoxicity against p53-deficient human HCT-116 cells assessed as reduction in cell viability measured after 72 hrs by MTT assay; format: functional, cell-based; settings: HCT-116, 72 h
# HT-29 = assay: Cytotoxicity against human HT-29 cells assessed as reduction in cell viability measured after 72 hrs by MTT assay; format: functional, cell-based; settings: HT-29, 72 h
# KB-V1 [7] = assay: Cytotoxicity against human multidrug-resistant KB-V1 cells assessed as reduction in cell viability measured after 72 hrs by MTT assay; format: functional, cell-based; settings: KB-V1, 72 h
# KB-V1 [8] = assay: Cytotoxicity against human multidrug-resistant KB-V1 cells assessed as reduction in cell viability measured after 72 hrs in presence of verapamil by MTT assay; format: functional, cell-based; settings: KB-V1, 72 h
# [9] = Cytotoxicity against human U-87 cells assessed as reduction in cell viability measured after 72 hrs by MTT assay; format: functional, cell-based, U-87MG ATCC; settings: U-87 MG
# HeLa = assay: Cytotoxicity against human HeLa cells assessed as reduction in cell viability measured after 72 hrs by MTT assay; format: functional, cell-based
# [10] = Cytotoxicity against HDFa cells assessed as reduction in cell viability at 0.0005 to 100 uM measured after 72 hrs by MTT assay; format: toxicity, cell-based; settings: human, dose 0.0005-100 µM
# Sus scrofa = species on record: Sus scrofa; assay: Inhibition of porcine brain tubulin polymerization at 5 uM measured at 10 mins interval for 100 mins by turbidimetric assay; format: tissue-based
# 518A2 [11] = assay: Cell cycle arrest in human […] cells assessed as increase in accumulation at sub-G1 phase at 25 nM measured after 6 to 24 hrs by propidium iodide staining based FACS analysis; format: functional; settings: time 6-24 hrs
# 518A2 [12] = assay: Cell cycle arrest in human […] cells assessed as increase in accumulation at G2/M phase at 25 nM measured after 6 to 24 hrs by propidium iodide staining based FACS analysis; format: functional; settings: time 6-24 hrs
# [13] = target: Caspase-3/Caspase-7 (Homo sapiens) (UniProt P42574+P55210); assay: Activation of caspase-3/7 activity in human 518A2 cells at 25 nM preincubated for 24 hrs followed by caspase-3/7 fluorogenic substrate addition and measured after 60 mins by fluorescence assay; format: cell-based; settings: filed as activator, time 25.0 hrs
# MCF7 = assay: Cytotoxicity against human MCF7 cells assessed as reduction in cell viability measured after 72 hrs by MTT assay; format: functional, cell-based; settings: MCF7, 72 h
# Tubulin (Homo sapiens) [14] = target: T1, Tubulin (Homo sapiens) (UniProt P68371+Q9H4B7+P0DPH7+P68366+Q13509+Q71U36+P04350+Q3ZCM7+P07437+P68363+Q9BQE3+Q6PEY2+Q13885+Q9BVA1+Q9BUF5); assay: Induction of microtubule fragmentation in human 518A2 cells at 25 nM measured after 24 hrs by immunofluorescence assay; format: cell-based
# Tubulin (Homo sapiens) [15] = target: T1, Tubulin (Homo sapiens); assay: Induction of microtubule fragmentation in human 518A2 cells assessed as appearance of area with dorsal stress fibre at 25 nM measured after 24 hrs by immunofluorescence assay; format: cell-based
# Tubulin (Homo sapiens) [16] = target: T1, Tubulin (Homo sapiens); assay: Induction of microtubule fragmentation in human 518A2 cells assessed as appearance of area with transverse arcs at 25 nM measured after 24 hrs by immunofluorescence assay; format: cell-based
# [17] = Effect on angiogenic activity in human EA.hy 926 cells assessed as reduction in vessel like 2D structure at 25 nM measured after 5 hrs by light microscopy; format: toxicity, cell-based; settings: ea.hy 926, 5 h, 0.025 µM
# [18] = Hydrolytic stability of compound in DMSO-d6/D2O measured after 7 days by 1H-NMR analysis; format: physicochemical; settings: 168 h; time 7 day
# Sequence of Transcriptional activator Myb (P10242 whole entry): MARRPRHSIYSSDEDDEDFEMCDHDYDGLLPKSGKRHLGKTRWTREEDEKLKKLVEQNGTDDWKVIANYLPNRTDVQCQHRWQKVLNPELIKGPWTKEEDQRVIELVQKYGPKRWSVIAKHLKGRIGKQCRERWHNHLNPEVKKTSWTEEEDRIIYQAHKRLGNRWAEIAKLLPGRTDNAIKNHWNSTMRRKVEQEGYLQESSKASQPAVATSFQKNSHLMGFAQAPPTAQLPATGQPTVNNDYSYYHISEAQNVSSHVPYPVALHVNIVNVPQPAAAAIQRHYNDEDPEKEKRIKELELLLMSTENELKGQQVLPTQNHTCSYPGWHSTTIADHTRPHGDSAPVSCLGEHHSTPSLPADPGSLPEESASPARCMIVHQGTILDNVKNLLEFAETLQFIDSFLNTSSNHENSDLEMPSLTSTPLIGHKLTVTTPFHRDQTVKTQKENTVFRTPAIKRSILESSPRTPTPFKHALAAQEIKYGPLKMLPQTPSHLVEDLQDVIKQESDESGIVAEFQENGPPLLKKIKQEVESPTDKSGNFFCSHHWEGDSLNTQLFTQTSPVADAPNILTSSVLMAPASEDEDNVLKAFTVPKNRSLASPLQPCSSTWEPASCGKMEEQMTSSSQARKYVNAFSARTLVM
# Sequence of Caspase-3/Caspase-7 (Homo sapiens) (P42574 whole entry, looked up): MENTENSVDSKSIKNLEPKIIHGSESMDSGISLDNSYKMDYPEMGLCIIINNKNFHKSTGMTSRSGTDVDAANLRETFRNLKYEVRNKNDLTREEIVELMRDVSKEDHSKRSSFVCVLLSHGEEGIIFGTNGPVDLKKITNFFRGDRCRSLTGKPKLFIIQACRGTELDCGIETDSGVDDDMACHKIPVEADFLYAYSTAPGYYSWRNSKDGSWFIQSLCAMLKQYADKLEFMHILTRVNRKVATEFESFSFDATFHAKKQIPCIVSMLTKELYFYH
# Sequence of Caspase-3/Caspase-7 (Homo sapiens) (P55210 whole entry, looked up): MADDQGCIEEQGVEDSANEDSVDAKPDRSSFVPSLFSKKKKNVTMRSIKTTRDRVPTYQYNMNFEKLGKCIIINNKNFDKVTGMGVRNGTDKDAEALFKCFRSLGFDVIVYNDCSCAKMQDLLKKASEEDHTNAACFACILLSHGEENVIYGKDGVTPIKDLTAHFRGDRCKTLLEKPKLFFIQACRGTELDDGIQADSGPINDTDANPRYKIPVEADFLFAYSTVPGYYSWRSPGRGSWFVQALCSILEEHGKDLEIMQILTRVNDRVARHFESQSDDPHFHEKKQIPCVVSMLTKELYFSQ
smiles,measurement,setting,value
N#CC1=C(N)Oc2c(ccc3ccccc23)C1c1cccc(S(F)(F)(F)(F)F)c1 (stereo not drawn),IC50,[1],130 nM
COc1cc(C2C(C#N)=C(N)Oc3c2ccc2ccccc32)cc(OC)c1OC(C)C (stereo not drawn),Activity,[2],80.9%
same,IC50,[1],60 nM
same,IC50 at 72 h,[3],65.8 nM
same,IC50,518A2 [4],266 nM
same,IC50,HCT-116 [5],274 nM
same,IC50,HCT-116 [6],137 nM
same,IC50,HT-29,4310 nM
same,IC50,KB-V1 [7],89 nM
same,IC50,KB-V1 [8],105 nM
same,IC50,[9],53.1 nM
same,IC50,HeLa,72 nM
same,Activity,[10],Toxic
same,inhibition,Sus scrofa,Active
same,Activity,518A2 [11],Active
same,Activity,518A2 [12],Active
same,Activity,[13],Active
same,IC50,MCF7,265 nM
CCCCOc1c(OC)cc(C2C(C#N)=C(N)Oc3c2ccc2ccccc32)cc1OC (stereo not drawn),Activity,[2],87.6%
same,IC50,[1],30 nM
same,IC50 at 72 h,[3],78 nM
same,IC50,518A2 [4],143 nM
same,IC50,HCT-116 [5],67.4 nM
same,IC50,HCT-116 [6],172 nM
same,IC50,HT-29,671 nM
same,IC50,KB-V1 [7],84.5 nM
same,IC50,KB-V1 [8],41.6 nM
same,IC50,[9],46.3 nM
same,IC50,HeLa,98.9 nM
same,Activity,[10],Toxic
same,inhibition,Sus scrofa,Active
same,Activity,Tubulin (Homo sapiens) [14],Active
same,Activity,Tubulin (Homo sapiens) [15],Active
same,Activity,Tubulin (Homo sapiens) [16],Active
same,Activity,[13],Active
same,IC50,MCF7,103 nM
COc1cc(C2C(C#N)=C(N)Oc3c2ccc2ccccc32)ccc1OCc1ccccc1 (stereo not drawn),IC50,[1],1000 nM
COc1ccc(C2C(C#N)=C(N)Oc3c2ccc2ccccc32)cc1Br (stereo not drawn),IC50,[1],420 nM
CCOc1c(OC)cc(C2C(C#N)=C(N)Oc3c2ccc2ccccc32)cc1OC (stereo not drawn),Activity,[2],78.1%
same,IC50,[1],14 nM
same,IC50 at 72 h,[3],6.2 nM
same,IC50,518A2 [4],25 nM
same,IC50,HCT-116 [5],22.7 nM
same,IC50,HCT-116 [6],13.1 nM
same,IC50,HT-29,269 nM
same,IC50,KB-V1 [7],20.9 nM
same,IC50,KB-V1 [8],16.5 nM
same,IC50,[9],10.6 nM
same,IC50,HeLa,21.9 nM
same,Activity,[10],Toxic
same,inhibition,Sus scrofa,Active
same,Activity,Tubulin (Homo sapiens) [14],Active
same,Activity,Tubulin (Homo sapiens) [15],Active
same,Activity,Tubulin (Homo sapiens) [16],Active
same,Activity,518A2 [11],Active
same,Activity,518A2 [12],Active
same,Activity,[13],Active
same,IC50,MCF7,28.1 nM
CCOc1c(Br)cc(C2C(C#N)=C(N)Oc3c2ccc2ccccc32)cc1OC (stereo not drawn),IC50,[1],36.8 nM
COc1ccc(C2C(C#N)=C(N)Oc3c2ccc2ccccc32)cc1OC (stereo not drawn),IC50,[1],40 nM
COc1ccc(C2C(C#N)=C(N)Oc3c2ccc2ccccc32)cc1C (stereo not drawn),IC50,[1],400 nM
CCCCCOc1c(OC)cc(C2C(C#N)=C(N)Oc3c2ccc2ccccc32)cc1OC (stereo not drawn),IC50,[1],400 nM
Cc1ccc(C2C(C#N)=C(N)Oc3c2ccc2ccccc32)cc1 (stereo not drawn),IC50,[1],430 nM
N#CC1=C(N)Oc2c(ccc3ccccc23)C1c1ccc(C#N)cc1 (stereo not drawn),IC50,[1],390 nM
N#CC1=C(N)Oc2c(ccc3ccccc23)C1c1cc(F)c(F)c(F)c1 (stereo not drawn),IC50,[1],70 nM
CSc1ccc(C2C(C#N)=C(N)Oc3c2ccc2ccccc32)cc1 (stereo not drawn),IC50,[1],210 nM
COc1ccc(C2C(C#N)=C(N)Oc3c2ccc2ccccc32)cc1 (stereo not drawn),IC50,[1],3700 nM
COc1ccc(C2C(C#N)=C(N)Oc3c2ccc2ccccc32)cc1[N+](=O)[O-] (stereo not drawn),IC50,[1],110 nM
CSc1ccc(C2C(C#N)=C(N)Oc3c2ccc2ccccc32)cc1F (stereo not drawn),IC50,[1],240 nM
CCCOc1c(OC)cc(C2C(C#N)=C(N)Oc3c2ccc2ccccc32)cc1OC (stereo not drawn),Activity,[2],74.5%
same,IC50,[1],30 nM
same,IC50 at 72 h,[3],11.9 nM
same,IC50,518A2 [4],26.1 nM
same,IC50,HCT-116 [5],68.5 nM
same,IC50,HCT-116 [6],33.1 nM
same,IC50,HT-29,284 nM
same,IC50,KB-V1 [7],23.1 nM
same,IC50,KB-V1 [8],16.3 nM
same,IC50,[9],27.4 nM
same,IC50,HeLa,33.1 nM
same,Activity,[10],Toxic
same,inhibition,Sus scrofa,Active
same,Activity,Tubulin (Homo sapiens) [14],Active
same,Activity,Tubulin (Homo sapiens) [15],Active
same,Activity,Tubulin (Homo sapiens) [16],Active
same,Activity,518A2 [11],Active
same,Activity,518A2 [12],Active
same,Activity,[13],Active
same,Activity,[17],Toxic
same,IC50,MCF7,21.4 nM
COc1ccc(/C=C\c2cc(OC)c(OC)c(OC)c2)cc1O [COMBRETASTATIN A4],Stability,[18],Unstable
same,inhibition,Sus scrofa,Active
same,Activity,Tubulin (Homo sapiens) [14],Active
same,Activity,Tubulin (Homo sapiens) [15],Active
same,Activity,Tubulin (Homo sapiens) [16],Active
same,Activity,518A2 [12],Active
C=CCOc1c(OC)cc(C2C(C#N)=C(N)Oc3c2ccc2ccccc32)cc1OC (stereo not drawn),Activity,[2],31.3%
same,IC50,[1],14 nM
same,IC50 at 72 h,[3],15.7 nM
same,IC50,518A2 [4],3.6 nM
same,IC50,HCT-116 [5],193 nM
same,IC50,HCT-116 [6],15.9 nM
same,IC50,HT-29,395 nM
same,IC50,KB-V1 [7],18.7 nM
same,IC50,KB-V1 [8],15.9 nM
same,IC50,[9],5.7 nM
same,IC50,HeLa,22.2 nM
same,Activity,[10],Toxic
same,inhibition,Sus scrofa,Active
same,Activity,Tubulin (Homo sapiens) [14],Active
same,Activity,Tubulin (Homo sapiens) [15],Active
same,Activity,Tubulin (Homo sapiens) [16],Active
same,Activity,518A2 [11],Active
same,Activity,518A2 [12],Active
same,Activity,[13],Active
same,IC50,MCF7,43.3 nM
CCOc1c(I)cc(C2C(C#N)=C(N)Oc3c2ccc2ccccc32)cc1OC (stereo not drawn),IC50,[1],50 nM
CNC(=O)c1ccccc1Sc1ccc2c(/C=C/c3ccccn3)n[nH]c2c1 [AXITINIB],Activity,[2],19.6%
N#CC1=C(N)Oc2c(ccc3ccccc23)C1c1ccc(S(F)(F)(F)(F)F)cc1 (stereo not drawn),IC50,[1],3200 nM
N#CC1=C(N)Oc2c(ccc3ccccc23)C1c1ccc(Cl)c(F)c1 (stereo not drawn),IC50,[1],16 nM
COc1cc(C2C(C#N)=C(N)Oc3c2ccc2ccccc32)c(Br)c(OC)c1OC (stereo not drawn),IC50,[1],130 nM
N#CC1=C(N)Oc2c(ccc3ccccc23)C1c1cccc([N+](=O)[O-])c1 (stereo not drawn),Stability,[18],Stable
same,IC50,[1],8.7 nM
same,IC50 at 72 h,[3],29.5 nM
same,IC50,518A2 [4],10.8 nM
same,IC50,HCT-116 [5],7.57 nM
same,IC50,HCT-116 [6],28.2 nM
same,IC50,HT-29,32.1 nM
same,IC50,KB-V1 [7],23.7 nM
same,IC50,KB-V1 [8],76.1 nM
same,IC50,[9],67.7 nM
same,IC50,HeLa,36.1 nM
same,IC50,MCF7,182 nM
